Measurements from patent publication US20250243186A1, “PIPERIDINYL INDOLE DERIVATIVES, PREPARATION METHODS AND MEDICINAL USES THEREOF” (HANSOH BIO LLC, priority 2021, published 2025).
Read-outs that look alike come from different tables or passages of the source.

Assays:
[1] = molecular target: T1, Recombinant human Factor B catalytic domain (Homo sapiens (Human), UniProt P00751); assay: Factor B binding assay by TR-FRET; conditions: 10 nM his-tagged Factor B catalytic domain, 100 nM tracer, 1 h
T1 sequence (P00751 470-764): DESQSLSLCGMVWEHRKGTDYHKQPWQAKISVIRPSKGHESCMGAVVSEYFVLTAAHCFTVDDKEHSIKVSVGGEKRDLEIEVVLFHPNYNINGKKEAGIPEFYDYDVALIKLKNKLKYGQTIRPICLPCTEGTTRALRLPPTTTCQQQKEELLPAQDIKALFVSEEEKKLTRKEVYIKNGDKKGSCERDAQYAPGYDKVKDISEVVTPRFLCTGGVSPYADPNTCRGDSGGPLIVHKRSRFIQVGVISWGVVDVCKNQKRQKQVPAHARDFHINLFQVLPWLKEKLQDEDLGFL
Description: • 1. […] 5× Kinase Buffer A (Thermo Fisher, CAT #PV3189) • 3. LANCE Eu-W1024 Anti-6×His Antibody (PerkinElmer, CAT #AD0401) • 4.
DMSO (Thermo Fisher Scientific) • 6. Compounds—10 mM stock in DMSO • 7. Victor Nivo multimode plate reader (PerkinElmer) • 8.
Factor B binding affinity of each compound tested was determined using a time-resolved fluorescence resonance energy transfer (TR-FRET) technology. 10 nM recombinant his-tagged Factor B catalytic domain, varying concentrations of inhibitors, 4 nM LANCE Eu-W1024 Anti-6×His Antibody and 100 nM TR-FRET_tool2 tracer was incubated in 1× Kinase Buffer A for 1 h. Measurement was performed in a reaction volume of 15 μL by adding 5 μL of the test compound, 5 μL of Factor B/antibody mixture and 5 μL of tracer into white opaque 384-well assay plates.

[2] = molecular target: T1, Recombinant human Factor B catalytic domain; assay: Target residence time of Factor B inhibitors by surface plasmon resonance (SPR); conditions: binding half-life ln2/koff
Description: PBS-P+ Buffer 10× (Cytiva, CAT #28995084) • 3. Series S Sensor Chip NTA (Cytiva, CAT #BR100532) • 4. Amine Coupling Kit (Cytiva, CAT #BR100050) • 5. […] Greiner 96 well plates, polypropylene (Sigma-Aldrich, CAT #M7310-100EA) • 7. […] Biacore 8 k (Cytiva)
Biacore 8 k instrument was primed using 1× PBS-P+ buffer before docking a Cytiva NTA chip. […] The protein ligand was further crosslinked to sensorchip surface by amine coupling kit. Immobilization and binding experiment were performed at room temperature.
After changing buffer to 1× PBS-P+ buffer with 2% (v/v) DMSO, a pre-run was performed for a period of at least 30 min at a flow rate of 30 μl/min to obtain a stable surface. […] A flow rate of 30 μl/min was used. A blank run with the same conditions was performed before the compound was injected.
The SPR sensorgrams were analyzed with Biacore Insight Evaluation Software by using a method of double referencing. The resulting curve was fitted with a 1:1 binding model. Compounds that bound according to an induced fit model were fitted with a two-state reaction model. The kinetic constants (kon, koff, KD) of replicates were averaged. Binding half-life (t1/2) for the 1:1 binding model and two-state reaction model was calculated from the dissociation constant koff with the formula t1/2=ln2/koff.

[3] = read-out: Factor B TR-FRET IC50

Structure (SMILES)	IC50 [1, 3] [nM]	t1/2 [2] [h]	IC50 ([1]; Factor B TR-FRET IC50 (nM)) [nM]
COc1cc(C)c2[nH]ccc2c1CN1CCC2(CC1c1ccc(C(=O)O)cc1)CC2(F)F (single isomer, unassigned) [8 (Isomer 2), 4-(1,1-difluoro-6-((5-methoxy-7-methyl-1H-indol-4-yl)methyl)-6-azaspiro[2.5]octan-5-yl)benzoic acid]	–	–	245
Cc1cc(C)c2[nH]ccc2c1CN1C[C@@H]2CCCC2C1c1ccc(C(=O)O)cc1 (single isomer, unassigned) [9 (Isomer 2), 4-(2-((5,7-dimethyl-1H-indol-4-yl)methyl)octahydrocyclopenta[c]pyrrol-1-yl)benzoic acid]	–	–	40.6
CCc1cc(C)c2[nH]ccc2c1CN1CCC2(C[C@H]1c1ccc(C(=O)O)cc1)CC(F)(F)C2 [Example 80]	< 2	–	–
[2H]C([2H])([2H])Oc1cc(C)c2[nH]ccc2c1CN1CCC2(C[C@H]1c1ccc(C(=O)O)cc1)CC(F)(F)C2 [Example 82]	< 2	–	–
Cc1cc(C)c2[nH]ccc2c1CN1CC2CC2C1c1ccc(C(=O)O)cc1 (stereo not shown) [Example 1, 4-(3-((5,7-dimethyl-1H-indol-4-yl)methyl)-3-azabicyclo[3.1.0]hexan-2-yl)benzoic acid]	923	–	–
COc1cc(C)c2[nH]ccc2c1CN1CCC2(CC1c1ccc(C(=O)O)cc1)CC(C)(F)C2 (single isomer, unassigned) [42 (Isomer 1), 4-(2-fluoro-7-((5-methoxy-7-methyl-1H-indol-4-yl)methyl)-2-methyl-7-azaspiro[3.5]nonan-6-yl)benzoic acid]	–	–	4
Cc1cc(C2CC2)c(CN2CC3CCCC3C2c2ccc(C(=O)O)cc2)c2cc[nH]c12 (single isomer, unassigned) [32 (Isomer 1), 4-(2-((5-cyclopropyl-7-methyl-1H-indol-4-yl)methyl)octahydrocyclopenta[c]pyrrol-1-yl)benzoic acid]	–	–	26.3
COc1cc(C)c2[nH]ccc2c1CN1CCC2(C[C@H]1c1ccc(C(=O)O)c3ccccc13)CC(F)(F)C2 [Example 85]	< 2	–	–
Cc1cc(C)c2[nH]ccc2c1CN1CCC2(C[C@H]1c1ccc(C(=O)O)cc1)CC(F)(F)C2 (single isomer, unassigned) [76 (Isomer 1)]	< 2	–	–

The next lines start with results.

IC50 [1, 3] [nM]	t1/2 [2] [h]	Structure (SMILES)	IC50 ([1]; Factor B TR-FRET IC50 (nM)) [nM]
< 2	1.214	Cc1cc(C2CC2)c(CN2CCC3(C[C@H]2c2ccc(C(=O)O)cc2)CC(F)(F)C3)c2cc[nH]c12 [Example 53]	–
173	–	Cc1cc(C)c2[nH]ccc2c1CN1CCC(CCO)=CC1c1ccc(C(=O)O)cc1 (stereo not shown) [Example 4, 4-(1-((5,7-dimethyl-1H-indol-4-yl)methyl)-4-(2-hydroxyethyl)-1,2,5,6-tetrahydropyridin-2-yl)benzoic acid]	–
< 2	–	COc1cc(C)c2[nH]ccc2c1CN1CCC2(C[C@H]1c1ccc(C(=O)O)c(F)c1)CC(F)(F)C2 [Example 64]	–
